# Assay results: ChEMBL document CHEMBL5113486, “Hit-to-lead optimization of novel phenyl imidazole carboxamides that are active against Leishmania donovani” (Eur J Med Chem, 2022)
# What was measured:
# Leishmania donovani = assay: Antileishmanial activity against Leishmania donovani infected in human THP-1 cells assessed as growth inhibition by intramacrophage assay; format: functional, organism-based
# [1] = Cytotoxicity against human THP-1 cells assessed as cell growth inhibition; format: toxicity, cell-based
# [2] = Selectivity index, ratio of CC50 for cytotoxicity against human THP-1 cells to IC50 for antileishmanial activity against Leishmania donovani infected in human THP-1 cells; format: toxicity, cell-based; settings: read-out: Ratio CC50/IC50
# [3] = Cytotoxicity against human HepG2 cells assessed as cell growth inhibition at 100 uM; format: toxicity, cell-based; settings: read-out: Activity
SMILES,IC50 (Leishmania donovani),CC50 [1],selectivity ratio [2],inhibition at 100 µM [3]
COc1ccc(-c2cnc(NC(=O)C3CCOCC3)n2C)cc1,> 100 µM,> 100 µM,> 1,–
Cn1c(-c2cccc(C#N)c2)cnc1NC(=O)c1ncc[nH]1,> 50 µM,> 50 µM,> 1,–
Cn1c(-c2cccc(F)c2)cnc1NC(=O)c1ccc(F)cc1,12 µM,58 µM,4.8,–
COc1cccc(-c2cnc(NC(=O)c3ccc(F)cc3)n2C)c1,> 100 µM,> 100 µM,> 1,–
Cn1c(-c2cccc(Cl)c2)cnc1NC(=O)c1ccc(F)cc1,22 µM,> 50 µM,> 2.3,–
COc1ccc(-c2cnc(NC(=O)CCc3ccccc3)n2C)cc1,22 µM,> 100 µM,> 4.5,–
Cc1ccc(-c2cnc(NC(=O)c3ccc(F)cc3)n2C)cc1,13 µM,60 µM,4.5,–
COc1ccc(-c2cnc(NC(=O)c3cccc(OC)c3)n2C)cc1,> 100 µM,> 100 µM,> 1,–
COc1ccccc1-c1cnc(NC(=O)c2ccc(F)cc2)n1C,> 100 µM,> 100 µM,> 1,–
COc1ccc(-c2cnc(NC(=O)c3cccc(O)c3)n2C)cc1,54 µM,> 100 µM,> 1.9,–
CCCn1c(-c2ccc(OC)cc2)cnc1NC(=O)c1ccc(F)cc1,18 µM,> 100 µM,> 1,–
Cc1ccc(C(=O)Nc2ncc(-c3ccccc3)o2)cc1,1.4 µM,26 µM,19,–
Cn1c(-c2ccc(C#N)cc2)cnc1NC(=O)c1ccc(F)cc1,> 50 µM,> 50 µM,> 1,–
COc1ccc(-c2cnc(NC(=O)c3ccccn3)n2C)cc1,13 µM,> 100 µM,> 7.7,–
Cn1c(-c2cccc(C#N)c2)cnc1NC(=O)c1ccc(F)cc1,16 µM,> 100 µM,> 6.3,–
Cn1c(-c2ccccc2)cnc1NC(=O)c1ccc(Br)cc1,37 µM,> 100 µM,> 2.7,–
COc1ccc(-c2cnc(NC(=O)c3cccc(Br)c3)n2C)cc1,> 100 µM,> 100 µM,> 1,< 50%
Cn1c(-c2ccccc2)cnc1NC(=O)c1ccc(Cl)cc1,12 µM,> 100 µM,> 8.3,–
COc1ccc(CN(C)C(=O)NC(=O)c2ccc(F)cc2)cc1,> 50 µM,> 50 µM,> 1,–
COc1ccc(-c2cnc(NC(=O)c3cccc(Cl)c3)n2C)cc1,> 10 µM,> 28 µM,> 2.8,–
O=C(Nc1ncc(-c2ccccc2)o1)c1ccc(Cl)cc1,0.33 µM,10 µM,30,–
Cn1c(-c2ccccc2Cl)cnc1NC(=O)c1ccc(F)cc1,15 µM,> 50 µM,> 3.3,–
COc1ccc(-c2cnc(NC(=O)c3ccc(O)cc3)n2C)cc1,> 100 µM,> 100 µM,> 1,–

SMILES,IC50 (Leishmania donovani),CC50 [1],selectivity ratio [2],inhibition at 100 µM [3]
Cn1c(-c2ccc(C#N)cc2)cnc1NC(=O)c1ncc[nH]1,14 µM,> 100 µM,> 7.1,–
COc1ccc(-c2cnc(NC(=O)c3ccc(F)cc3)n2C(C)C)cc1,> 50 µM,> 50 µM,> 1,–
Cc1ccccc1-c1cnc(NC(=O)c2ccc(F)cc2)n1C,3.9 µM,> 50 µM,> 13,–
Cn1c(-c2cccc(Br)c2)cnc1NC(=O)c1ccc(F)cc1,5.4 µM,> 50 µM,> 9.3,–
Cn1c(-c2ccccc2)cnc1NC(=O)c1cccc(Br)c1,3.1 µM,> 50 µM,> 16,–
COc1ccc(-c2cnc(NC(=O)c3cccc([N+](=O)[O-])c3)n2C)cc1,> 100 µM,> 100 µM,> 1,–
Cn1c(-c2ccc(Br)cc2)cnc1NC(=O)c1ccc(F)cc1,7.1 µM,46 µM,6.5,–
COc1ccc(-c2cnc(NC(=O)c3ccc(C)cc3)n2C)cc1,29 µM,> 100 µM,> 3.4,–
COc1ccccc1-c1cnc(NC(=O)c2ncc[nH]2)n1C,> 50 µM,> 50 µM,> 1,–
COc1ccc(-c2cnc(NC(=O)c3ccccc3Br)n2C)cc1,> 100 µM,> 100 µM,> 1,–
COc1ccc(CNC(=O)NC(=O)c2ccc(F)cc2)cc1,> 50 µM,> 50 µM,> 1,–
COc1ccc(-c2cnc(NC(=O)c3cccnc3)n2C)cc1,> 100 µM,> 100 µM,> 1,< 50%
Cn1c(-c2ccccc2)cnc1NC(=O)c1cc(-c2ccccn2)[nH]n1,0.68 µM,> 50 µM,> 74,–
COc1ccc(-c2cn(C)c(NC(=O)c3ccc(F)cc3)n2)cc1,> 50 µM,> 50 µM,> 1,–
COc1ccc(-c2cnc(NC(=O)c3ccccc3C)n2C)cc1,65 µM,> 100 µM,> 1.5,< 50%
COc1ccc(-c2cnc(NC(=O)c3ccco3)n2C)cc1,23 µM,> 100 µM,> 4.3,< 50%
COc1ccc(-c2cnc(NC(=O)c3ccccc3Cl)n2C)cc1,13 µM,> 50 µM,> 3.8,–
Cn1c(-c2ccccc2)cnc1NC(=O)c1cccc(Cl)c1,8.5 µM,> 50 µM,> 5.9,–
Cn1c(-c2ccc([N+](=O)[O-])cc2)cnc1NC(=O)c1ccc(F)cc1,> 50 µM,> 50 µM,> 1,–
COc1ccc(C(=O)Nc2ncc(-c3ccc(OC)cc3)n2C)cc1,> 100 µM,> 100 µM,> 1,–
COc1ccc(-c2cnc(NC(=O)c3ccc(Cl)cc3)n2C)cc1,8.1 µM,> 100 µM,> 12,–
Cn1c(-c2ccccc2)cnc1NC(=O)c1ccccc1,4.5 µM,> 100 µM,> 22,–
Cn1c(-c2ccccc2[N+](=O)[O-])cnc1NC(=O)c1ccc(F)cc1,9.8 µM,31 µM,3.2,–

SMILES,IC50 (Leishmania donovani),CC50 [1],selectivity ratio [2],inhibition at 100 µM [3]
COc1ccc(-c2cnc(NC(=O)c3ccc(Br)cc3)n2C)cc1,> 100 µM,> 100 µM,> 1,< 50%
COc1ccc(-c2cnc(NC(=O)C3CCCC3)n2C)cc1,83 µM,> 100 µM,> 1.2,< 50%
COc1ccc(-c2cnc(NC(=O)Cc3ccccc3)n2C)cc1,25 µM,> 100 µM,> 4,< 50%
Cn1c(-c2ccccc2)cnc1NC(=O)c1ccccc1Cl,5 µM,> 50 µM,> 10,–
COc1ccc(-c2cnc(NC(=O)c3ccccc3C#N)n2C)cc1,14 µM,> 100 µM,> 7.1,< 50%
Cn1c(-c2cccc([N+](=O)[O-])c2)cnc1NC(=O)c1ccc(F)cc1,> 50 µM,> 50 µM,> 1,–
Cc1cccc(C(=O)Nc2ncc(-c3ccccc3)n2C)c1,3.5 µM,> 50 µM,> 14,–
Cn1cc(-c2ccccc2)nc1NC(=O)c1ccc(F)cc1,> 50 µM,> 50 µM,> 1,–
COc1ccc(-c2cnc(NC(=O)c3ccno3)n2C)cc1,> 100 µM,> 100 µM,> 1,< 50%
COc1ccc(-c2cnc(NC(=O)c3ccncc3)n2C)cc1,44 µM,> 100 µM,> 2.3,< 50%
COc1ccc(-c2cnc(NC(=O)c3ccccc3OC)n2C)cc1,33 µM,> 100 µM,> 3,–
CCC(=O)Nc1ncc(-c2ccc(OC)cc2)n1C,> 100 µM,> 100 µM,> 1,–
COc1ccc(-c2cnc(NC(=O)c3ccc(F)cc3)n2-c2ccccc2)cc1,6.1 µM,8.8 µM,> 2.9,–
COc1ccc(-c2cccc(NC(=O)c3ccc(F)cc3)n2)cc1,> 100 µM,> 100 µM,> 1,–
COc1ccc(-c2ccnc(NC(=O)c3ccc(F)cc3)c2)cc1,> 100 µM,> 100 µM,> 1,–
Cn1c(-c2ccccc2Cl)cnc1NC(=O)c1ncc[nH]1,5.2 µM,> 50 µM,> 9.6,–
Cn1c(-c2ccccc2Br)cnc1NC(=O)c1ccc(F)cc1,> 100 µM,> 100 µM,> 1,–
COc1ccc(-c2cnc(NC(=O)c3ccccc3[N+](=O)[O-])n2C)cc1,> 50 µM,> 50 µM,> 1,–
Cc1ccc(C(=O)Nc2ncc(-c3ccccc3)n2C)cc1,2.4 µM,> 50 µM,> 20,–
Cn1c(-c2ccc(Cl)cc2)cnc1NC(=O)c1ccc(F)cc1,4.9 µM,37 µM,7.6,–
C[C@@H]1[C@H](O)[C@@H](C)/C=C/C=C/C=C/C=C/C=C/C=C/C=C/[C@H](O[C@@H]2O[C@H](C)[C@@H](O)[C@H](N)[C@@H]2O)C[C@@H]2O[C@](O)(C[C@@H](O)C[C@@H](O)[C@H](O)CC[C@@H](O)C[C@@H](O)CC(=O)O[C@H]1C)C[C@H](O)[C@H]2C(=O)O [AMPHOTERICIN B],0.12 µM,6 µM,–,–
CCCCCCCCCCCCCCCCOP(=O)([O-])OCC[N+](C)(C)C [MILTEFOSINE],0.39 µM,> 20 µM,–,–
